Measured values reported in patent US10626115B2, “Fused pyrimidinone and triazinone derivatives containing bridged nitrogen, their process of preparation and their therapeutic uses as antifungal and/or antiparasitic agents” (UNIVERSITE DE NANTES, priority 2015, dated 2020).
Converted amounts (≈) assume the structure as drawn.

Legend:
[1] = tested on: A. fumigatus susceptible strain ASFU78; experiment: Antifungal susceptibility, spectrofluorimetric microdilution, ASFU78; type: cell-based, Aspergillus fumigatus; details: Aspergillus fumigatus, read-out: MIC values ASFU78
Description: (§1) Eleven strains of A. fumigatus with various itraconazole susceptibility were used: • Five susceptible strains: ASFU7, ASFU35A, ASFU38A, ASFU76 and ASFU78. • Six itraconazole-resistant strains: ASFU77 (erg11 mutation), ASFU13, ASFU17, ASFU19, ASFU20, ASFU23.
(§2) Antifungal susceptibility was evaluated with a spectrofluorimetric microdilution method. MIC was the concentration that was able to inhibit 80% of fluorescence measured in the control wells.

[2] = tested on: Candida albicans strain (CAAL93); experiment: Murine systemic candidiasis; type: in vivo; details: neutropenic Swiss mice, CAAL93 i.v., 10 mg/kg per os once a day for 5 days; for survival compared with the non-treated group: 28 days (compound 51, 14 days); for survival compared with the non-treated group / activity on fungal burden of the kidney compared to FLC: p<0.05; for fungal burden of the kidney: p<0.05 (compound 51 p<0.001)
Description: (§3) Transiently neutropenic female Swiss mice were used for experiments on systemic candidiasis and invasive aspergillosis.
Mice were inoculated intravenously with a Candida albicans strain (CAAL93). Treatment was administrated once a day (10 mg/kg per os) for 5 days. […] Fungal burden of the kidney was evaluated in dead animals during the experimentation or in animals sacrificed at the end of the experimentation.

[3] = tested on: fluconazole-susceptible C. albicans strain: CAAL93; experiment: Antifungal susceptibility, spectrofluorimetric microdilution, CAAL93; type: cell-based; details: Candida albicans, read-out: MIC values CAAL93
Description: (§4) Eight strains of Candida spp. with various azoles-susceptibilities were used: • One fluconazole-susceptible C. albicans strain: CAAL93 • Two fluconazole-resistant C. albicans strains: CAAL111 (efflux pump) and CAAL117 (erg11 mutations+voriconazole-resistant) • five fluconazole-resistant Candida non albicans strains: C. krusei (CAKR7, CAKR8), C. glabrata (CAGL2), C. parapsilosis s.l. (CAPA1, CAPA2).
(§5) Antifungal susceptibility was evaluated with a spectrofluorimetric microdilution method.

[4] = tested on: A. fumigatus susceptible strain ASFU76; experiment: Antifungal susceptibility, spectrofluorimetric microdilution, ASFU76; type: cell-based, Aspergillus fumigatus; details: Aspergillus fumigatus, read-out: MIC values ASFU76
Description: as §1, §2

[5] = tested on: A. fumigatus susceptible strain ASFU7; experiment: Antifungal susceptibility, spectrofluorimetric microdilution, ASFU7; type: cell-based, Aspergillus fumigatus; details: Aspergillus fumigatus, read-out: MIC values ASFU7
Description: as §1, §2

[6] = tested on: A. fumigatus susceptible strain ASFU38A; experiment: Antifungal susceptibility, spectrofluorimetric microdilution, ASFU38A; type: cell-based, Aspergillus fumigatus; details: Aspergillus fumigatus, read-out: MIC values ASFU38A
Description: as §1, §2

[7] = Cytotoxicity on HeLa cells; type: cell-based, Human; details: human, 50% inhibition of control fluorescence
Description: (§6) Hela Human cell line was used in view to evaluate cytotoxicity. It was evaluated with a spectrofluorimetric microdilution method. IC50 was the concentration that was able to inhibit 50% of fluorescence measured in the control wells.

[8] = tested on: promastigote stage of a Leishmania mexicana strain; experiment: Anti-Trypanosomatidae activity, promastigote stage, spectrofluorimetric microdilution; type: cell-based; details: for IC50: Leishmania mexicana, promastigote stage, 50% of control growth, read-out: L. mexicana (IC50 μM)
Description: Compounds were evaluated on the promastigote stage of a Leishmania mexicana strain using a spectrofluorimetric microdilution method. Inhibitory concentration 50 (IC50) was the concentration that inhibited 50% of the control growth.

[9] = tested on: fluconazole-resistant C. krusei (CAKR8); experiment: microbe, parasite or virus in culture; type: cell-based; details: Pichia kudriavzevii, read-out: MIC values CAKR8
Description: as §4, §5

[10] = tested on: fluconazole-resistant C. glabrata (CAGL2); experiment: microbe, parasite or virus in culture; type: cell-based; details: Nakaseomyces glabratus, read-out: MIC values CAGL2
Description: as §4, §5

[11] = tested on: fluconazole-resistant C. parapsilosis s.l. (CAPA1); experiment: microbe, parasite or virus in culture; type: cell-based; details: Lodderomyces parapsilosis, read-out: MIC values CAPA1
Description: as §4, §5

[12] = tested on: fluconazole-resistant C. albicans strain CAAL111 (efflux pump); experiment: microbe, parasite or virus in culture; type: cell-based; details: Candida albicans, read-out: MIC values CAAL111
Description: as §4, §5

[13] = tested on: fluconazole-resistant C. parapsilosis s.l. (CAPA2); experiment: microbe, parasite or virus in culture; type: cell-based; details: Lodderomyces parapsilosis, read-out: MIC values CAPA2
Description: as §4, §5

[14] = tested on: fluconazole-resistant C. krusei (CAKR7); experiment: microbe, parasite or virus in culture; type: cell-based; details: Pichia kudriavzevii, read-out: MIC values CAKR7
Description: as §4, §5

[15] = tested on: A. fumigatus susceptible strain ASFU35A; experiment: Antifungal susceptibility, spectrofluorimetric microdilution, ASFU35A; type: cell-based, Aspergillus fumigatus; details: Aspergillus fumigatus, read-out: MIC values ASFU35A
Description: as §1, §2

[16] = tested on: A. fumigatus itraconazole-resistant strain ASFU77 (erg11 mutation); experiment: Antifungal susceptibility, spectrofluorimetric microdilution, ASFU77; type: cell-based, Aspergillus fumigatus; details: for MIC: Aspergillus fumigatus, read-out: MIC values ASFU77
Description: as §1, §2

[17] = tested on: A. fumigatus itraconazole-resistant strain ASFU20; experiment: Antifungal susceptibility, spectrofluorimetric microdilution, ASFU20; type: cell-based, Aspergillus fumigatus
Description: as §1, §2

[18] = tested on: CRL:(WI) rats; experiment: Acute oral toxicity study in rats; type: in vivo
Description: The single-dose oral toxicity of compound 51 was performed according to the acute toxic class method (OECD 423 and Commission Regulation (EC) No 440/2008 of 30 May 2008, B.1.Tris) in CRL:(WI) rats.
Two groups of three female CRL:(WI) rats were treated with the test item at a dose level of 300 mg/kg bw (Group 1 and Group 2).
A single oral treatment was carried out by gavage for each animal after an overnight food withdrawal. Food was made available again 3 hours after the treatment. The test item was administered formulated in DMSO at a concentration of 30 mg/mL at a dose volume of 10 mL/kg bw.
Initially, three females (Group 1) were treated at a dose level of 300 mg/kg bw. As no mortality was observed, a confirmatory group (Group 2) was treated at the same dose level.
Clinical observations were performed at 30 minutes, 1, 2, 3, 4 and 6 hours after dosing and daily for 14 days thereafter. Body weight was measured on days −1, 0 and 7 and before necropsy. All animals were subjected to a necropsy and a macroscopic examination

[19] = tested on: A. fumigatus itraconazole-resistant strain ASFU19; experiment: Antifungal susceptibility, spectrofluorimetric microdilution, ASFU19; type: cell-based, Aspergillus fumigatus; details: Aspergillus fumigatus, read-out: MIC values ASFU19
Description: as §1, §2

[20] = tested on: A. fumigatus itraconazole-resistant strain ASFU23; experiment: Antifungal susceptibility, spectrofluorimetric microdilution, ASFU23; type: cell-based, Aspergillus fumigatus
Description: as §1, §2

[21] = tested on: Hela Human cell line; experiment: Cytotoxicity on HeLa cells; type: cell-based; details: 100 μM
Description: as §6

[22] = tested on: fluconazole-resistant C. albicans strain CAAL117 (erg11 mutations+voriconazole-resistant); experiment: microbe, parasite or virus in culture; type: cell-based
Description: as §4, §5

[23] = tested on: A. fumigatus itraconazole-resistant strain ASFU13; experiment: Antifungal susceptibility, spectrofluorimetric microdilution, ASFU13; type: cell-based, Aspergillus fumigatus
Description: as §1, §2

[24] = tested on: A. fumigatus itraconazole-resistant strain ASFU17; experiment: Antifungal susceptibility, spectrofluorimetric microdilution, ASFU17; type: cell-based, Aspergillus fumigatus; details: Aspergillus fumigatus, read-out: MIC values ASFU17
Description: as §1, §2

[25] = tested on: Aspergillus fumigatus (ASFU7) spores; experiment: Murine invasive aspergillosis; type: in vivo; details: neutropenic Swiss mice, ASFU7 spores i.v., 10 mg/kg per os once a day for 5 days
Description: as §3
Mice were inoculated intravenously with Aspergillus fumigatus (ASFU7) spores.
Treatment was administrated once a day (10 mg/kg per os) for 5 days. […] Fungal burden of the kidney was evaluated in dead animals during the experimentation or in animals sacrificed at the end of the experimentation.

Compound	MIC [1] [µg/mL]	survival compared with the non-treated group [2]	activity on fungal burden of the kidney compared to FLC [2]	fungal burden of the kidney [2]	MIC [3] [µg/mL]	MIC [4] [µg/mL]	MIC [5] [µg/mL]	MIC [6] [µg/mL]	IC50 [7] [µM]	effectiveness against the promastigote stage of L. Mexicana, in words [8]	IC50 [8] [µM]	MIC [9] [µg/mL]	MIC [10] [µg/mL]	MIC [11] [µg/mL]	MIC [12] [µg/mL]	MIC [13] [µg/mL]	MIC [14] [µg/mL]	MIC [15] [µg/mL]	MIC [16] [µg/mL]	further results
C[C@@H](n1ccc2nc(-c3ccccc3)cn2c1=O)[C@](O)(Cn1cncn1)c1ccc(F)cc1F [Compound 29, 6-[(1R,2R)-2-(2,4-Difluorophenyl)-2-hydroxy-1-methyl-3-(1H-1,2,4-triazol-1-yl)propyl]-2-phenylimidazo[1,2-c]pyrimidin-5-one]	5.93 ± 0.72 (≈ 12.8 µM)	significant longer survival	significantly higher when compared to FLC	significantly decreased	< 0.001	6.66 ± 0.53 (≈ 14.4 µM)	2.49 ± 0.13 (≈ 5.38 µM)	6.86 ± 1 (≈ 14.8 µM)	25	effective	2.8 ± 0.3	0.07 ± 0.02 (≈ 0.151 µM)	0.15 ± 0.01 (≈ 0.324 µM)	0.009 ± 0.003 (≈ 0.0195 µM)	0.005 ± 0.002 (≈ 0.0108 µM)	0.007 ± 0.004 (≈ 0.0151 µM)	1.28 ± 0.33 (≈ 2.77 µM)	6.36 ± 1.42 (≈ 13.8 µM)	28.2 ± 21.9 (≈ 61 µM)	
COc1ccc(-c2cc3cnn([C@H](C)[C@](O)(Cn4cncn4)c4ccc(F)cc4F)c(=O)n3c2)cc1 [Compound 51, 3-[(1R,2R)-2-(2,4-Difluorophenyl)-2-hydroxy-1-methyl-3-(1,2,4-triazol-1-yl)propyl]-7-(4-methoxyphenyl)-3H-pyrrolo[1,2-d][1,2,4]triazin-4-one]	6.01 ± 0.48 (≈ 12.2 µM)	significant longer survival		most active	< 0.001	6.52 ± 0.16 (≈ 13.2 µM)	2.21 ± 0.09 (≈ 4.49 µM)	5.84 ± 0.2 (≈ 11.9 µM)				0.081 ± 0.009 (≈ 0.164 µM)	0.017 ± 0.003 (≈ 0.0345 µM)		< 0.001		0.062 ± 0.032 (≈ 0.126 µM)	6.08 ± 0.29 (≈ 12.3 µM)	6.6 ± 0.24 (≈ 13.4 µM)	activity against ITRA-resistant isolate ASFU20, in words [17]: active; MIC ([17]; Aspergillus fumigatus, read-out: MIC values ASFU20): 3.14 µg/mL (≈ 6.38 µM); acute oral LD50 ([18]; female CRL:(WI) rats, single oral gavage): above 300 mg/kg bw; GHS ranking for acute oral exposure ([18]; female, CRL:(WI), rat, in vivo, po, 14 days): Category 4; body weight gains ([18]; rat, in vivo, po, 300 mg/kg): no indication of a test item-related effect; clinical observations ([18]; rat, in vivo, po, 300 mg/kg): hunched back and slightly decreased activity; mortality ([18]; rat, in vivo, po, 300 mg/kg): did not cause mortality; MIC [19]: > 49 µg/mL; activity against ITRA-resistant isolate ASFU23, in words [20]: active; MIC ([20]; Aspergillus fumigatus, read-out: MIC values ASFU23): 1.92 µg/mL (≈ 3.9 µM); cytotoxic effect at the higher concentration used [21]: didn't show any cytotoxic effect; MIC ([22]; Candida albicans, read-out: MIC values CAAL117): 0.018 ± 0.002 µg/mL (≈ 0.0365 µM); fold more active than voriconazole against CAAL117 ([22]; compared with voriconazole): 100 fold; activity against ITRA-resistant isolate ASFU13, in words [23]: active; MIC ([23]; Aspergillus fumigatus, read-out: MIC values ASFU13): 2.03 µg/mL (≈ 4.12 µM); MIC values against ITRA-resistant isolate carrying M220T mutation (ASFU77), in words [16]: in the micromolar range; MIC [24]: > 49 µg/mL
C[C@@H](n1ccc2nc(-c3ccc(C#N)cc3)cn2c1=O)[C@](O)(Cn1cncn1)c1ccc(F)cc1F [Compound 34, 6-[(1R,2R)-2-(2,4-Difluorophenyl)-2-hydroxy-1-methyl-3-(1H-1,2,4-triazol-1-yl)propyl]-2-(4-cyanophenyl)imidazo[1,2-c]pyrimidin-5-one]	5.98 ± 0.62 (≈ 12.3 µM)	significant longer survival	significantly higher when compared to FLC	significantly decreased	< 0.001	6.44 ± 0.17 (≈ 13.2 µM)	2.43 ± 0.19 (≈ 4.98 µM)	12.6 ± 4.05 (≈ 25.9 µM)	25	effective	2.8 ± 0.2	0.06 ± 0.01 (≈ 0.123 µM)	0.64 ± 0.27 (≈ 1.31 µM)	0.002 ± 0.001 (≈ 0.0041 µM)	0.003 ± 0.001 (≈ 0.00615 µM)	0.002 ± 0.001 (≈ 0.0041 µM)	0.45 ± 0.31 (≈ 0.923 µM)	6.27 ± 0.3 (≈ 12.9 µM)	38.4 ± 13.1 (≈ 78.7 µM)	survival efficiency compared with FLC [2]: significantly more efficient than FLC; survival ([25]; 14 days, p<0.01): did survive significantly longer; activity compared with compounds 29 and 35 ([25]; p<0.05): significantly more active than compounds 29 and 35; fungal burden of the kidney ([25]; p<0.05): significantly reduced
